Assays:
[1] = siponimod single dose study (SAD study) in healthy volunteers; format: in vivo; conditions: healthy subjects
[2] = multiple ascending dosing study (MAD study) in healthy subjects, adverse events; format: in vivo, human; conditions: maximum investigated multiple dose of 20 mg, over 28 days
Experimental: (§1) In another study in healthy subjects siponimod was administered in multiple doses, i.e. 0.3, 1, 2.5, 10 and 20 mg, over 28 days (multiple ascending dosing study, MAD study).

[3] = test system: Absolute Lymphocyte Count (ALC); assay: multiple ascending dosing study in healthy volunteers, decline of Absolute Lymphocyte Count; format: in vivo, human
Experimental: as §1

[4] = multiple-dose titration clinical study in healthy subjects, daily chronotropic effects; format: in vivo, human
Experimental: S1P receptor modulators, as mentioned above, are known to cause dose dependent transient decrease in heart rate within 2-3 hours of drug intake (Legangneux et al. 2012, Hoch et al. 2014). In order to evaluate on how to best mitigate the bradyarrhythmic risk of siponimod, a multiple-dose titration clinical study in healthy subjects was run.
The primary objective of this study was to measure the daily chronotropic effects of two siponimod dose-titration regimens (from 0.25 mg to 10 mg; Dose Titration (DT) 1# and 2#, respectively) compared to daily chronotropic effects of oral siponimod 10 mg (fixed dose, once daily) and placebo over 12 days. The heart rate (HR) changes have been compared between subjects exposed to 10 mg siponimod once daily (QD) with or without 2 different up-titration schemes. The titration scheme of this study was: • DT 1#: Day 1: 0.25 mg; Day 2: 0.25 mg; Day 3: 0.25 mg; Day 4: 0.5 mg; Day 5: 1.0 mg; Day 6: 2.0 mg; Day 7: 4.0 mg; Day 8: 8.0 mg and from Day 9 to Day 12: 10.0 mg daily. • DT 2#: Day 1: 0.25 mg; Day 2: 0.25 mg; Day 3: 0.5 mg; Day 4: 0.75 mg; Day 5: 1.25 mg; Day 6: 2.0 mg; Day 7: 3.0 mg; Day 8: 5.0 mg; from Day 9 to Day 12: 10.0 mg daily.
This effect was maintained until end of treatment on Day 12. […] It was then concluded that both titration regimens effectively attenuated the initial bradycardia observed on Day 1 of treatment with siponimod 10 mg daily fixed-dose.

[5] = phase II dose finding study in relapsing-remitting multiple sclerosis (CBAF312A2201); format: in vivo, human; conditions: RRMS patients
Experimental: In a phase II dose finding study of siponimod in patients with relapsing-remitting multiple sclerosis (CBAF312A2201) safety, tolerability and efficacy on magnetic resonance imaging (MRI) brain lesion parameters were evaluated. The dose response curve for the MRI-based efficacy of siponimod given orally once daily compared with placebo was determined.
The dose-response curve as defined by the primary endpoint, favored the upper part of this range, i.e. a dose in the range of siponimod 2 mg, since efficacy seemed to decrease with lower doses. Siponimod achieved positive results in a clinical trial for the treatment of RRMS patients (Selmaj et al., Lancet Neurol, 2013, 12, 756-767) and is currently being investigated in an ongoing phase III study (EXPAND) in patients with SPMS. The dose of 2 mg of siponimod was the chosen dose for this follow up phase III study.

[6] = i.v. versus oral absolute bioavailability study in healthy subjects (CBAF312A2126), PK and PD; format: in vivo, human
Experimental: A comparison of bradyarrhythmic effects (HR, AVB, SP) of a 1 mg oral dose from previous studies and a 1 mg/day i.v. dose infused over 24 h in healthy subjects supported the hypothesis that such effects are related to the slope of the concentration-time curve.
In said study with siponimod administered intravenously, PK and PD were determined. […] This finding was consistent with previous oral administrations of 0.25 mg (starting dose of the oral initial period dosing regimen).
(§2) The safety of the i.v. route in humans was supported by a local tolerance study in rabbit and cardiovascular safety studies in guinea pig, rat and rabbit using i.v. (bolus) route.

[7] = clinical study of siponimod pharmacokinetics in CYP2C9 poor metabolizers; format: in vivo, human
Description: In addition to the previously described benefits, the dosing regimen of the present disclosure has also the advantage to highly reduce the additional risks run by the CYP2C9 poor metabolizer.

[8] = general pharmacokinetics/pharmacodynamics of siponimod (lymphocyte counts, half-life, brain penetration); format: in vivo; conditions: in vivo
Experimental: (§3) Siponimod is a second generation S1P receptor modulator that reduces peripheral lymphocyte counts approximately 4-6 hours (h) after the first dose. […] Siponimod's mode of action is believed to include S1P1-mediated prevention of effector lymphocyte recirculation from lymphatic tissue to sites of inflammation, such as the central nervous system (CNS). In addition, there may be direct beneficial effects in the CNS mediated by S1P1 and/or S1P5. […] Thus, siponimod may display additional beneficial activities in the CNS.

[9] = test system: peripheral lymphocyte counts; assay: as above; format: in vivo
Experimental: as §3

[10] = i.v. (bolus) cardiovascular safety studies; format: in vivo, guinea pig, rat and rabbit; conditions: similar to the effects by oral route
Description: as §2

[11] = randomized placebo-controlled study of siponimod in intracerebral hemorrhage (ICH) patients; format: in vivo, human; conditions: compared to placebo
Description: The clinical study investigates the initial efficacy and safety of siponimod administered on top of standard-of-care compared to placebo in patients with intracerebral hemorrhage (ICH). This is a randomized, doubled-blinded, placebo-controlled, parallel group study of siponimod on top of standard-of-care for ICH, consisting of 3 epochs: Screening/Baseline, Treatment, and Follow-Up (see FIG. 1).
Patients fulfilling all eligibility criteria are randomly allocated to one of two treatment groups in a ratio of 1:1. […] These patients continue to be followed for the remainder of the assessment schedule (Table 3). i.v. Dose Titration
The siponimod i.v. dosing regimen is as follows: • Day 1: 0.25 mg over 6 hours (×2), then 0.5 mg over 6 hours, then 0.75 mg over 6 hours for a total Day 1 dose of 1.75 mg • Day 2: 1.25 mg over 6 hours, then 2 mg over 6 hours, then 2.5 mg over 6 hours (×2) for a total Day 2 dose of 8.25 mg • Days 3 through Day 7: 2.5 mg over 6 hours (×4) for a total daily dose of 10 mg. • If patient can swallow then the administration from Day 8 to Day 14 is oral.
This is a randomized, doubled-blinded, placebo-controlled, parallel group study of siponimod on top of standard-of-care for ICH, consisting of 3 epochs: Screening/Baseline, Treatment, and Follow-Up (see FIG. 1).
Patients are assigned to one of the following 2 treatment arms in a ratio of 1:1. • Study treatments are defined as: • Siponimod • Day 1: i.v. 0.25 mg over 6 hours (×2), then 0.5 mg over 6 hours, then 0.75 mg over 6 hours for a total Day 1 dose of 1.75 mg • Day 2: i.v. 1.25 mg over 6 hours, then 2 mg over 6 hours, then 2.5 mg over 6 hours (×2) for a total Day 2 dose of 8.25 mg • Days 3 through 7: i.v. 2.5 mg over 6 hours (×4) for a total daily dose of 10 mg • Days 8 through 14; 10 mg p.o. QD

CYP2C9, CYP3A4 = conditions: humans; cited from earlier work

SMILES: CCc1cc(/C(C)=N/OCc2ccc(C3CCCCC3)c(C(F)(F)F)c2)ccc1CN1CC(C(=O)O)C1 [siponimod, 1-{4-[(1E)-N-{[4-cyclohexyl-3-(trifluoromethyl)benzyl]oxy}ethanimidoyl]-2-ethylbenzyl}-3-azetidine carboxylic acid]
- safety and tolerability ([1]; 25 mg single dose): favorable safety and tolerability profile
- single maximum tolerated dose (single MTD) ([1]; single dose): 25 mg
- only relevant adverse event [2]: symptomatic bradycardia
- % Emax0-12 h from Day 1 pre-dose ([3]; 0.3 mg dose group): 41.9%
- % Emax0-12 h from time-matched Day −1 ([3]; 0.3 mg dose group): 47.8%
- % Emax0-12 h from Day 1 pre-dose ([3]; 1 mg dose group): 71.3%
- % Emax0-12 h from time-matched Day −1 ([3]; 1 mg dose group): 73.8%
- ALC decrease, chronic response ([3]; 2.5 mg): ~70%
- % Emax0-12 h from Day 1 pre-dose ([3]; 2.5 mg dose group): 66.9%
- % Emax0-12 h from time-matched Day −1 ([3]; 2.5 mg dose group): 67.5%
- ALC decrease, chronic response (plateau) ([3]; 10 mg): about 80%
- % Emax0-12 h from Day 1 pre-dose ([3]; 10 mg dose group): 83.7%
- % Emax0-12 h from time-matched Day −1 ([3]; 10 mg dose group): 86.1%
- % Emax0-12 h from Day 1 pre-dose ([3]; 20 mg dose group): 84.8%
- % Emax0-12 h from time-matched Day −1 ([3]; 20 mg dose group): 86.5%
- acute ALC response ([3]; Day 1 of treatment, between 0.3 mg and 10 mg dose): dose-dependent decline of ALC
- reduction in heart rate vs. placebo ([4]; Day 1, either titration regimen): no statistically significant reduction in heart rate vs. placebo
- reduction in HR ([4]; Days 3 to 7, DT 1# and DT 2#): minor reductions in HR
- heart rates versus placebo ([4]; by Day 9 until Day 12, both titration regimens): comparable to placebo
- clinically significant bradycardia or AV conduction effects ([4]; dose titration regimens DT 1# and DT 2# (0.25 mg to 10 mg), oral, 12 days): Neither DT 1# nor DT 2# resulted in clinically significant bradycardia or AV conduction effects
- heart rates versus placebo ([4]; non-titration regimen, 10 mg fixed dose once daily, throughout the study): considerable separation from placebo
- bradyarrhythmia ([4]; starting dose of 0.25 mg of the 2 DT regimens): not associated with bradyarrhythmia
- MRI-based efficacy ([5]; 1.25 mg to 2 mg dose range): close to maximal efficacy
- safety profile ([5]; 1.25 mg to 2 mg dose range): good safety profile
- MRI-based efficacy ([5]; 10 mg orally once daily): little additional efficacy compared to 2 mg
- safety profile ([5]; 10 mg orally once daily): worse safety profile
- pharmacokinetics (PK) linearity ([6]; human, in vivo): dose linear and time-independent pharmacokinetics
- Tmax ([6]; human, in vivo, 0.25 mg, oral, after dosing, read-out: median oral Tmax): 8 h
- magnitude of PD (ALC) effects %Emax, i.v. versus oral ([6]; i.v. 0.25 mg over 3 hour and 1 mg over 24 hours): comparable to the effects after oral doses at the same dose levels
- median i.v. Tmax ([6]; i.v. infusion 0.25 mg over 3 hours and 1 mg over 24 hours): at the end of the 3 hour and 24 hour infusions
- cardiac safety profile ([6]; i.v. infusion 0.25 mg over 3 hours and 1 mg over 24 hours (4×0.25 mg/6 hours)): excellent cardiac safety profile
- geometric mean oral Cmax relative to mean i.v. Cmax (lower) ([6]; oral versus i.v.): -48%
- Tmax in poor versus extensive metabolizers ([7]; poor and extensive metabolizers): comparable
- Cmax in poor versus extensive metabolizers ([7]; poor metabolizers): only slightly greater
- AUC fold versus extensive metabolizers (CYP2C9*1*1) ([7]; poor metabolizers (CYP2C9*2*3 and CYP2C9*3*3 genotypes)): approximately 2 fold
- half-life [8]: ~30 h
- time to reduction of peripheral lymphocyte counts ([9]; after the first dose): 4 to 6 h (h)
- recovery of the baseline lymphocyte counts ([9]; after treatment withdrawal): within a week
- blood brain barrier crossing ([9]; in vivo): readily crosses the blood brain barrier
- cardiovascular effects [10]: Cmax-related transient cardiovascular effects
- global functioning, modified Rankin Scale (mRS) score ([11]; Day 90 after ICH, 7 days i.v. with titration followed by 7 days p.o.): improves global functioning
- development of perihematomal edema (PHE) ([11]; between 24 hours and 14 days after initiation of treatment): decreases the development of perihematomal edema (PHE)
- functional mobility ([11]; two week treatment): improves functional mobility of the affected body parts
- metabolizing enzymes (CYP2C9, CYP3A4): mainly by CYP2C9, followed by CYP3A4
